Measurements as given in BindingDB's records for doi:10.1016/j.bmcl.2009.03.150 (Gsk, 2009).
pIC50: −log10 of the molar value.

Tests used:
Assay in all cases: Enzyme Inhibition Assay
Beta-secretase 2 = target: T1, Beta-secretase 2 (Homo sapiens, UniProt Q9Y5Z0)
T1 sequence (Q9Y5Z0 whole entry): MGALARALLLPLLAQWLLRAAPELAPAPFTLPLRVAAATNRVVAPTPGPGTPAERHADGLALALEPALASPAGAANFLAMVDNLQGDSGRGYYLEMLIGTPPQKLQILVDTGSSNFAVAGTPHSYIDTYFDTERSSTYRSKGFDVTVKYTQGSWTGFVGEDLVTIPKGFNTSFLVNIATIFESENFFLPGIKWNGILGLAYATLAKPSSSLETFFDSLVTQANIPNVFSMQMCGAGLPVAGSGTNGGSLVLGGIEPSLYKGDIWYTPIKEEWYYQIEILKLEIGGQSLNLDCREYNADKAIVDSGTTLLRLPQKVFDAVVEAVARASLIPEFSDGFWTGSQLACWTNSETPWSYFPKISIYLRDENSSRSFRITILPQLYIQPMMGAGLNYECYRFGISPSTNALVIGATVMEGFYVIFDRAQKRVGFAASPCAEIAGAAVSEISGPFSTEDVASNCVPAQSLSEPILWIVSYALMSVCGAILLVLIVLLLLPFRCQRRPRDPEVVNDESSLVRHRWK

Beta-secretase 1 = Beta-secretase 1 (Homo sapiens, UniProt P56817); details: pH 4.5; 22 °C
Cathepsin D = Cathepsin D (Homo sapiens, UniProt P07339)
Cathepsin D, sequence (P07339 65-162 limits assumed): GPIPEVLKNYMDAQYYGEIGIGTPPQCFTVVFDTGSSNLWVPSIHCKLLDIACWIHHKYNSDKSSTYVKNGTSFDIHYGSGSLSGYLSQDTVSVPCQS
Cathepsin D, sequence (P07339 169-412 limits assumed): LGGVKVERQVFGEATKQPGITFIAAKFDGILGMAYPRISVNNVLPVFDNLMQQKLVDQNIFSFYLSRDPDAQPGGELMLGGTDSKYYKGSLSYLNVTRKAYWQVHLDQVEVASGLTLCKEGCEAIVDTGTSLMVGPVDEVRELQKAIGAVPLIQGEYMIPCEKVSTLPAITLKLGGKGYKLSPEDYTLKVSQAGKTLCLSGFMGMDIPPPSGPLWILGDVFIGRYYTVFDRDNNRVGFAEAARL

Beta-secretase 1, sequence (P56817 whole entry): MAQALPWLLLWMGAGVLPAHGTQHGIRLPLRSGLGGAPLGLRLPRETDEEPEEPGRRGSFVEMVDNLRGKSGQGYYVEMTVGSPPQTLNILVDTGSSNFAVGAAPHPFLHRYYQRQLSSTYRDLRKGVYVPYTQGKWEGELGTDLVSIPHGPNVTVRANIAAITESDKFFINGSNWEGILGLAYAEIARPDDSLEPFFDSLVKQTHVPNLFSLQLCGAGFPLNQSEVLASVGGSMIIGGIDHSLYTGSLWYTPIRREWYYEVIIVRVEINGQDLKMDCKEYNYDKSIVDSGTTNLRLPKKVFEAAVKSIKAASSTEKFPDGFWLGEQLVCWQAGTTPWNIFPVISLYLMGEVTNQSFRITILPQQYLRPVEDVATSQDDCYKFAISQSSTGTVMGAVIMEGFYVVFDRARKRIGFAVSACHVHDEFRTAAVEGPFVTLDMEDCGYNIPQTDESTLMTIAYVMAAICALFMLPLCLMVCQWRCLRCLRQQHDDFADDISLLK

`CCN1CCN2CCS(=O)(=O)N(C)C3C=C(C(=O)N[C@@H](Cc4ccccc4)[C@H](O)CNCc4cccc(C(F)(F)F)c4)C=C1C32` (some centres not stated) [7,6,6 tricyclic sulfonamide, 10] showed a pIC50 (Beta-secretase 2) of 5.42, a pIC50 (Beta-secretase 1) of 7.59 and a pIC50 (Cathepsin D) of 5.65.

`CCN1CCN2CCS(=O)(=O)N(C)C3C=C(C(=O)N[C@@H](Cc4ccccc4)[C@H](O)CNC4CC4)C=C1C32` (some centres not stated) [7,6,6 tricyclic sulfonamide, 19] was tested, and the pIC50 (Beta-secretase 2) was 4.79, the pIC50 (Beta-secretase 1) was 6.26 and the pIC50 (Cathepsin D) was 4.58.

With `CCc1cn2c3c(cc(C(=O)N[C@@H](Cc4ccccc4)[C@H](O)CNCc4cccc(OC)c4)cc13)N(C)S(=O)(=O)CCC2` [8,6,5 tricyclic sulfonamide, 32] the pIC50 (Beta-secretase 2) was 5.73, the pIC50 (Beta-secretase 1) was 7.55 and the pIC50 (Cathepsin D) was 5.80.

With `CCc1cn2c3c(cc(C(=O)N[C@@H](Cc4ccccc4)[C@H](O)CNC4CC4)cc13)N(C)S(=O)(=O)CCC2` [8,6,5 tricyclic sulfonamide, 33] the pIC50 (Beta-secretase 2) was 5.26, the pIC50 (Beta-secretase 1) was 6.31 and the pIC50 (Cathepsin D) was 5.54.
